The source of these data is ChEMBL document CHEMBL1133368, “Preparation of 5-(2,6-dideoxy-2-fluoro-alpha-L-talopyranosyloxy)-6-hydroxynap htho[2,3- f]quinoline-7,12-dione (FT-Alz), a new-type, potentially antitumor substance with various biological activities” (Bioorg Med Chem Lett, 2000).

A word on the IC50: it is the concentration needed to halve the response being measured.

The test system of one experiment is KB. Description: Growth inhibitory concentration of compound was measured against human nasopharyngeal carcinoma cell line (KB). Format: functional, cell-based.
For experiment [1], the system named is P388. Description: Growth inhibitory concentration of compound was measured against DOX resistant P388 cell line (P388 /DOX). Format: functional, cell-based. As to conditions: Mus musculus.
A further experiment relates to K562. Description: Growth inhibitory concentration of compound was measured against human leukemia cell line (K562). Format: functional, cell-based.
For the next experiment, the target named is DNA topoisomerase II (Homo sapiens, UniProt P11388+Q02880). Description: The compound was tested for its inhibitory activity against topoisomerase II. Format: protein assay.
A further experiment deals with Melanoma cell line. Description: Growth inhibitory concentration of compound was measured against human melanoma cell line (HMV-1). Format: functional, cell-based.
For the next experiment, the system named is T-24. Description: Growth inhibitory concentration of compound was measured against human bladder carcinoma cell line (T24). Format: functional, cell-based.
The next experiment concerns PC-14. Description: Growth inhibitory concentration of compound was measured against human lung carcinoma cell line (PC-14). Format: functional, cell-based.
The subject of the next experiment is L1210. Description: Growth inhibitory concentration of compound was measured against murine leukemia cell line (L1210). Format: functional, cell-based. As to conditions: Mus musculus.
Experiment [2] deals with P388. Description: Growth inhibitory concentration of compound was measured against murine leukemia cell line (P388). Format: functional, cell-based. As to conditions: Mus musculus.
Another experiment has as its system MKN-1. Description: Growth inhibitory concentration of compound was measured against human gastric adenocarcinoma cell line (MKN-1). Format: functional, cell-based.

As for `CC1OC(Oc2c(O)c3c(c4cccnc24)C(=O)c2ccccc2C3=O)C(F)C(O)C1O` (configuration not stated), the IC50 turned out to be 270 nM in the experiment with KB; 820 nM in the experiment with P388 [1]; 710 nM in the experiment on K562; 5000 nM on DNA topoisomerase II; 590 nM with Melanoma cell line; 360 nM in the experiment on T-24. The IC50 in the experiment on PC-14 amounted to 710 nM; in the experiment with L1210, 320 nM; in the experiment on P388 [2], 770 nM; in the experiment with MKN-1 it was 730 nM.

Regarding `CC1OC(Oc2c3c(c4cccnc4c2OC2OC(C)C(O)C(O)C2F)C(=O)c2ccccc2C3=O)C(F)C(O)C1O` (configuration not stated), the IC50 in the experiment with KB is above 8500 nM; in the experiment with P388 [1], above 8500 nM; in the experiment with K562, 5800 nM; with Melanoma cell line it was 7500 nM; with T-24, above 8500 nM; in the experiment on PC-14 it was above 8500 nM. Besides, the IC50 in the experiment with L1210, in the experiment with P388 [2] and with MKN-1 was above 8500 nM throughout.

As for `O=C1c2ccccc2C(=O)c2c1c(O)c(O)c1ncccc21`, the IC50 in the experiment on KB is 3000 nM; in the experiment on P388 [1] it was 3300 nM; in the experiment on K562 it was 7200 nM; in the experiment on Melanoma cell line it was 4100 nM; with T-24 it was 14000 nM; with PC-14 it was above 17000 nM. Besides, the IC50 in the experiment on L1210 is 7200 nM; in the experiment with P388 [2] it was 6900 nM; with MKN-1 it was 14000 nM.

Consider `COc1cccc2c1C(=O)c1c(O)c3c(c(O)c1C2=O)C[C@@](O)(C(=O)CO)C[C@@H]3O[C@H]1C[C@H](N)[C@H](O)[C@H](C)O1` [DOXORUBICIN], for which the IC50 with KB was 220 nM; in the experiment with P388 [1] it was above 900 nM; in the experiment on K562 it was 120 nM; in the experiment with Melanoma cell line, 280 nM; in the experiment on T-24 it was 640 nM; with PC-14, 1900 nM. For the same molecule, the half-maximal inhibitory concentration (IC50) came out at 50 nM in the experiment on L1210, 20 nM with P388 [2] and 640 nM in the experiment with MKN-1.
